25 compounds from US10106526B2, “Inhibitors of cyclin-dependent kinase 7 (CDK7)” (SYROS PHARMACEUTICALS, INC., priority 2014, dated 2018) can be followed below.

As usually defined, the IC50 is the concentration needed to halve the response being measured.

Assay [1] addresses CDK7/Cyclin H/MAT1 trimeric complex (Homo sapiens, UniProt P50613). Nature of the assay: CDK7 kinase assay, Caliper/LabChip EZ Reader (Biortus Biosciences). It is filed as biochemical. Conditions: CDK7/Cyclin H/MAT1 10 nM, ATP 2 mM, FAM-CDK7tide 2 μM, 30 min incubation, read-out: CDK7 Inhibition (IC50). On the procedure: Compounds of the invention were further assayed for CDK7 activity at Biortus Biosciences (Jiangyin, Jiangsu Province, P.R. of China) using a CDK7 kinase assay developed with a Caliper/LabChip EZ Reader (Perkin Elmer, Waltham, Mass.). […] The incubation period was chosen such that the total fraction of phosphorylated peptide product produced was <20% for the uninhibited kinase.

The target in the next assay is T1, CDK7 (Homo sapiens, UniProt P50613).
T1 construct: purchased Life Technologies (Adapta kinase assay service)
T1 sequence (P50613 whole entry): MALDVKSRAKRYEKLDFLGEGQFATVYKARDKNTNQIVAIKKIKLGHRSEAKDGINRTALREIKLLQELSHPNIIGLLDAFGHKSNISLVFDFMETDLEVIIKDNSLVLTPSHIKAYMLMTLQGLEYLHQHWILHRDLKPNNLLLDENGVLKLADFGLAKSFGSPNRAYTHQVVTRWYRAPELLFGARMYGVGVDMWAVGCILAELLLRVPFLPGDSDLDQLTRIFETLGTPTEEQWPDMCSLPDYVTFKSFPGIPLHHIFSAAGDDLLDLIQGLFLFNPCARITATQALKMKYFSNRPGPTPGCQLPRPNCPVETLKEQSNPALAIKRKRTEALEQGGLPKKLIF
T1 sequence (P51946 whole entry partner): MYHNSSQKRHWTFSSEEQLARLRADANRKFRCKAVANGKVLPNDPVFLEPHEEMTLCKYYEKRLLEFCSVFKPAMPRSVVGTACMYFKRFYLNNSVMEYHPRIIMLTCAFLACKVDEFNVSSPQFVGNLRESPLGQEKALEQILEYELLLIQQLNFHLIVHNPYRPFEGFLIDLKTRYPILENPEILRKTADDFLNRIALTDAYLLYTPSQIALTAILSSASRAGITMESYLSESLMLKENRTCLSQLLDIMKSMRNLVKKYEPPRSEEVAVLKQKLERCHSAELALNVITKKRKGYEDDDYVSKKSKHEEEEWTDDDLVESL
T1 sequence (P51948 whole entry partner): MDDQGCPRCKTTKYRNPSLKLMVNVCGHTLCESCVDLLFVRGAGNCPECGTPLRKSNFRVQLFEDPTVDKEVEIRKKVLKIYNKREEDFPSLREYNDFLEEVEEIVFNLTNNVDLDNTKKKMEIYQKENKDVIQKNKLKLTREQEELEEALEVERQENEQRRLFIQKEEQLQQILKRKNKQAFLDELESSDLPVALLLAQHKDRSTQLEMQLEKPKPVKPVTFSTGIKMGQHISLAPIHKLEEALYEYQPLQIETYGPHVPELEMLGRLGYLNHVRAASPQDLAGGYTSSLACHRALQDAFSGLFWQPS
Nature of the assay: CDK7 kinase activity, Adapta kinase assay (Life Technologies). It is filed as biochemical. Conditions: Adapta kinase assay at Life Technologies; 10 μM down to 0.514 nM, 3-fold serial dilutions; read-out: CDK7 Inhibition (IC50). A digest of the protocol:
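Adapta kinase activity assay run as a commercial service; substrates not specified here. Compounds tested in 3-fold serial dilutions from 10 μM down to 0.514 nM.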

A further assay concerns Jurkat cells. Nature of the assay: Inhibition of proliferation of Jurkat cells (CellTiter-Glo, 72 hour). Conditions: 10 μM to 316 pM. It is filed as cell-based, human. In a few lines: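 Human T-cell leukemia Jurkat cells in RPMI 1640 with 10% FBS were exposed 72 h at 37 °C, 5% CO2 to compounds from 10 μM to 316 pM in 0.5-log steps. Anti-proliferative effect measured by CellTiter-Glo; IC50 reported in binned categories.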

The test system of the next assay is A673 cells. Kind of assay: Inhibition of proliferation of A673 cells (CyQUANT, 72 hour). Type of assay: cell-based, human. Conditions: 72 hour proliferation. In a few lines:
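Human Ewing's sarcoma A673 cells in DMEM + 10% FBS + 1 mM sodium pyruvate, 37 °C, 5% CO2, exposed to compounds from 4 μM to 126.4 pM (0.5 log dilutions) for 72 h. Proliferation read by CyQUANT; IC50 reported as binned categories.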

Chain of CDK7/Cyclin H/MAT1 trimeric complex (P50613 whole entry): as the sequence (P50613 whole entry) above
Chain of CDK7/Cyclin H/MAT1 trimeric complex (P51946 whole entry partner): as the sequence (P51946 whole entry partner) above
Chain of CDK7/Cyclin H/MAT1 trimeric complex (P51948 whole entry partner): as the sequence (P51948 whole entry partner) above

Take `C=CC(=O)N1CCC[C@@H]1C(=O)N[C@H]1CCC[C@@H](Nc2ncc(Cl)c(-c3c[nH]c4ccccc34)n2)C1` [Compound 173, (R)-1-acryloyl-N-((1S,3R)-3-(5-chloro-4-(1H-indol-3-yl)pyrimidin-2-ylamino)cyclohexyl)pyrrolidine-2-carboxamide]: the half-inhibitory concentration (IC50) in assay [1] was under 100 nM; at CDK7 it was under 100 nM; in the assay with Jurkat cells (Homo sapiens), 500 to 5000 nM.
With `CN(C)CC=CC(=O)N1CCN(C2CCCC(Nc3ncc(Cl)c(-c4c[nH]c5ccccc45)n3)C2)CC1` (stereo not shown) [Compound 237], the IC50 in assay [1] was under 100 nM; on CDK7 it was under 100 nM; in the assay on Jurkat cells, under 500 nM; in the assay on A673 cells, under 500 nM.
Turning to `C=CC(=O)N1CCC(C(=O)N[C@H]2CCC[C@@H](Nc3ncc(Cl)c(-c4c[nH]c5ccccc45)n3)C2)CC1` [Compound 118, 1-acryloyl-N-((1S,3R)-3-(5-chloro-4-(1H-indol-3-yl)pyrimidin-2-ylamino)cyclohexyl)piperidine-4-carboxamide], the IC50 was under 100 nM in assay [1], under 100 nM on CDK7, under 500 nM in the assay on Jurkat cells (Homo sapiens) and under 500 nM in the assay with A673 cells (Homo sapiens).
As for `C=CC(=O)Nc1cnc(C(=O)N[C@H]2CCC[C@@H](Nc3ncc(Cl)c(-c4c[nH]c5ccccc45)n3)C2)nc1` [Compound 112, 5-acrylamido-N-((1S,3R)-3-(5-chloro-4-(1H-indol-3-yl)pyrimidin-2-ylamino)cyclohexyl)pyrimidine-2-carboxamide], the IC50 is 100 to 1000 nM in assay [1], under 100 nM on CDK7, over 5000 nM in the assay with Jurkat cells (Homo sapiens) and under 500 nM with A673 cells (Homo sapiens).
For `C=CC(=O)N1CC(N(C)[C@H]2CCC[C@@H](Nc3ncc(Cl)c(-c4c[nH]c5ccccc45)n3)C2)C1` [Compound 224], the 50% inhibitory concentration (IC50) in assay [1] was under 100 nM; on CDK7, under 100 nM; with Jurkat cells (Homo sapiens), over 5000 nM.
Take “4-trans-acrylamido-N-((1S,3R)-3-(5-chloro-4-(1H-indol-3-yl)pyrimidin-2-ylamino)cyclohexyl)cyclohexanecarboxamide [Compound 117]”: the IC50 in assay [1] is under 100 nM; at CDK7, under 100 nM; in the assay on Jurkat cells, under 500 nM; with A673 cells, under 500 nM.
With `C=CC(=O)N1CCN(C2CCCC(Nc3ncc(Cl)c(-c4c[nH]c5ccccc45)n3)C2)CC1C` (stereo not shown) [Compound 232], the 50% inhibitory concentration (IC50) in assay [1] is under 100 nM; at CDK7, under 100 nM; in the assay on Jurkat cells it was under 500 nM; with A673 cells it was under 500 nM.
For the compound `CN(C)C/C=C/C(=O)Nc1ccc(C(=O)N[C@H]2CCC[C@@H](Nc3ncc(C#N)c(-c4c[nH]c5ccccc45)n3)C2)nc1` [Compound 110, N-((1S,3R)-3-(5-cyano-4-(1H-indol-3-yl)pyrimidin-2-ylamino)cyclohexyl)-5-((E)-4-(dimethylamino)but-2-enamido)picolinamide], the IC50 was under 100 nM in assay [1], under 100 nM at CDK7, under 500 nM in the assay on Jurkat cells (Homo sapiens) and under 500 nM with A673 cells (Homo sapiens).
As to `C=CC(=O)N1CCN(C2CCCC(Nc3ncc(Cl)c(-c4c[nH]c5ccccc45)n3)C2)CC1C` (stereo not shown) [Compound 229], the IC50 in assay [1] was under 100 nM; on CDK7, under 100 nM; in the assay on Jurkat cells, 500 to 5000 nM; in the assay on A673 cells it was under 500 nM.
Turning to `O=C(NC1CCCC(Nc2ncc(Cl)c(-c3cnn4ccccc34)n2)C1)C1CCN(C(=O)C=CCN2CCN(C3CC3)CC2)CC1` (stereo not shown) [Compound 223], the IC50 was under 100 nM in assay [1], under 100 nM on CDK7 and over 5000 nM in the assay with Jurkat cells.
With `CN(C)C/C=C/C(=O)Nc1ccc(C(=O)N[C@H]2CCC[C@@H](Nc3ncc(Cl)c(-c4c[nH]c5ccccc45)n3)C2)nc1` [Compound 106, N-((1S,3R)-3-(5-chloro-4-(1H-indol-3-yl)pyrimidin-2-ylamino)cyclohexyl)-5-((E)-4-(dimethylamino)but-2-enamido)picolinamide], the IC50 was under 100 nM in assay [1], under 100 nM on CDK7 and under 500 nM in the assay with A673 cells (Homo sapiens).
`C=CC(=O)N1CCC2(CC1)CN([C@H]1CCC[C@@H](Nc3ncc(Cl)c(-c4c[nH]c5ccccc45)n3)C1)C(=O)O2` [Compound 186]: the concentration for half-maximal inhibition (IC50) is under 100 nM in assay [1], under 100 nM on CDK7, 500 to 5000 nM with Jurkat cells and under 500 nM with A673 cells.
Consider `C=CC(=O)N1CCN([C@H]2CCC[C@@H](Nc3ncc(Cl)c(-c4c[nH]c5ccccc45)n3)C2)CC1` [Compound 168, 1-(4-((1S,3R)-3-(5-chloro-4-(1H-indol-3-yl)pyrimidin-2-ylamino)cyclohexyl)piperazin-1-yl)prop-2-en-1-One], for which the half-maximal inhibitory concentration (IC50) in assay [1] is under 100 nM; at CDK7, under 100 nM; in the assay on A673 cells (Homo sapiens), under 500 nM.
Regarding `C=CC(=O)N1CCC(CN[C@H]2CCC[C@@H](Nc3ncc(Cl)c(-c4c[nH]c5ccccc45)n3)C2)CC1` [Compound 124, 1-(4-(((1S,3R)-3-(5-chloro-4-(1H-indol-3-yl)pyrimidin-2-ylamino)cyclohexylamino)methyl)piperidin-1-yl)prop-2-en-1-One], the IC50 is under 100 nM in assay [1], under 100 nM on CDK7 and over 5000 nM in the assay on Jurkat cells (Homo sapiens).
With `CN(C)CC=CC(=O)N1CC(N(C)C2CCCC(Nc3ncc(Cl)c(-c4c[nH]c5ccccc45)n3)C2)C1` (stereo not shown) [Compound 231], the IC50 (in assay [1]; at CDK7) was under 100 nM each time.
Turning to `C=CC(=O)NC1CN(C2CCCC(Nc3ncc(Cl)c(-c4c[nH]c5ccccc45)n3)C2)C1` (mixture of isomers) [Compound 255], the half-inhibitory concentration (IC50) was under 100 nM in assay [1] and under 500 nM in the assay on A673 cells.
Regarding `C=CC(=O)N1CC(F)(F)C[C@H]1C(=O)N[C@H]1CCC[C@@H](Nc2ncc(C#N)c(-c3c[nH]c4ccccc34)n2)C1` [compound 392], the IC50 in assay [1] was under 100 nM; in the assay on A673 cells, under 500 nM.
Take `C=CC(=O)N1CCN(CC2(O)CCC[C@@H](Nc3ncc(Cl)c(-c4c[nH]c5ccccc45)n3)C2)CC1` (single isomer, unassigned) [Compound 188]: the IC50 was under 100 nM in assay [1], under 500 nM in the assay with Jurkat cells and under 500 nM in the assay on A673 cells.
Regarding `CN(C)C/C=C/C(=O)Nc1ccc(C(=O)N[C@H]2CCC[C@@H](Nc3ncc(C(F)(F)F)c(-c4c[nH]c5ccccc45)n3)C2)nc1` [Compound 248, N-((1S,3R)-3-((4-(1H-indol-3-yl)-5-(trifluoromethyl)pyrimidin-2-yl)amino)cyclohexyl)-5-((E)-4-(dimethylamino)but-2-enamido)picolinamide], the IC50 in assay [1] was under 100 nM; at CDK7, under 100 nM; with A673 cells (Homo sapiens), under 500 nM.
`CN(C)C/C=C/C(=O)Nc1ccc(CN(C)[C@H]2CCC[C@@H](Nc3ncc(Cl)c(-c4c[nH]c5ccccc45)n3)C2)nc1` [Compound 377, (E)-N-(6-((((1S,3R)-3-((5-chloro-4-(1H-indol-3-yl)pyrimidin-2-yl)amino)cyclohexyl)(methyl)amino)methyl)pyridin-3-yl)-4-(dimethylamino)but-2-enamide]: the figures for the half-maximal inhibitory concentration (IC50) (in assay [1]; in the assay on A673 cells (Homo sapiens)) were under 100 nM and under 500 nM, respectively.
As for `CN(C)C/C=C/C(=O)N1CC(F)(F)C[C@H]1C(=O)N[C@H]1CCC[C@@H](Nc2ncc(Cl)c(-c3c[nH]c4ccccc34)n2)C1` [compound 394], the results for the IC50 (in assay [1]; in the assay on A673 cells) were under 100 nM and under 500 nM, respectively.
For the compound `C=CC(=O)N1CCCC(C(=O)N[C@H]2CC[C@H](Nc3ncc(Cl)c(-c4c[nH]c5ccccc45)n3)CC2)C1` (stereo partly shown) [Compound 158, 1-acryloyl-N-((1r,4r)-4-(5-chloro-4-(1H-indol-3-yl)pyrimidin-2-ylamino)cyclohexyl)piperidine-3-carboxamide], the concentration for half-maximal inhibition (IC50) in assay [1] was under 100 nM; on CDK7, under 100 nM; in the assay with Jurkat cells (Homo sapiens), 500 to 5000 nM.
In the case of `CN(C)C/C=C/C(=O)N(C)c1ccc(CN[C@H]2CCC[C@@H](Nc3ncc(Cl)c(-c4c[nH]c5ccccc45)n3)C2)nc1` [Compound 390, (E)-N-(6-((((1S,3R)-3-((5-chloro-4-(1H-indol-3-yl)pyrimidin-2-yl)amino)cyclohexyl)amino)methyl)pyridin-3-yl)-4-(dimethylamino)-N-methylbut-2-enamide], the concentration for half-maximal inhibition (IC50) in assay [1] is under 100 nM; in the assay on A673 cells (Homo sapiens) it was under 500 nM.
On the same counts, the results for `CCc1cnc(N[C@@H]2CCC[C@](C)(NC(=O)c3ccc(NC(=O)/C=C/CN(C)C)cn3)C2)nc1-c1c(C)[nH]c2ccccc12` [Compound 412, 5-[[(E)-4-(dimethylamino)but-2-enoyl]amino]-N-[(1S,3R)-3-[[5-ethyl-4-(2-methyl-1H-indol-3-yl)pyrimidin-2-yl]amino]-1-methyl-cyclohexyl]pyridine-2-carboxamide] are 100 to 1000 nM and under 500 nM.
Consider `C=CC(=O)N1CC(F)(F)C[C@H]1C(=O)N[C@H]1CCC[C@@H](Nc2ncc(Cl)c(-c3c[nH]c4ccccc34)n2)C1` [Compound 116, (S)-1-acryloyl-N-((1S,3R)-3-(5-chloro-4-(1H-indol-3-yl)pyrimidin-2-ylamino)cyclohexyl)-4,4-difluoropyrrolidine-2-carboxamide], for which the IC50 was under 100 nM in assay [1], under 100 nM at CDK7 and under 500 nM in the assay with A673 cells (Homo sapiens).
